Values joined by “and” are separate entries in the source; they are usually repeats but may differ in a detail not shown here. Equal entries are not always repeated.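 Exposure lasted 48 hours, with cells grown in 96-well plates and compounds tested at five concentrations. Here, GI50 denotes the concentration required for 50% inhibition of growth. At the TGI there is no net growth.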 Bounds are passed on as bounds.

Common to all, as to experiment: inhibition of tumour cell growth, NCI panel, 48 h
Assay [1] has as its system CCRF-CEM leukemia.
For assay [2], the system named is COLO 205 colon.
Assay [3] relates to HL-60(TB) leukemia.
The subject of assay [4] is LOX IMVI melanoma.
Assay [5] concerns NCI-H460 lung.
The test system of assay [6] is OVCAR-3 ovarian.
Assay [7] relates to SR leukemia.
Assay [8] relates to UACC-257 melanoma.
Assay [9] deals with UO-31 renal.
The test system of assay [10] is ACHN renal.
Assay [11] has as its system HOP-92 NSCLC.

`COC(=O)c1c(O)ccc2c1c1c(n2Cc2ccccn2)C(=O)c2ccccc2C1`: the TGI in assay [1] is > 100 µM; in [2], 28.5 µM; in [3], > 100 µM; in assay [4], > 100 µM; in assay [5], > 100 µM; in assay [6], > 100 µM. The TGI in [7], in assay [8] and in assay [9] was > 100 µM each time.
On to `Cc1cc(O)c2c(c1O)C(=O)c1c(O)ccc(O)c1C2=O`, for which the TGI in [10], in assay [1], in assay [2], in [3], in assay [11] and in [4] was > 100 µM throughout. Besides, the TGI in assay [5], in assay [6], in [7] and in assay [8] was > 100 µM in each case.
As for `O=CC(O)C(O)C(O)COc1cc(CO)cc2c1C(=O)c1ccccc1C2=O` (stereo not given), the TGI was > 31.6 µM in assay [10]; > 100 µM in assay [1]; > 100 µM in assay [2]; > 100 µM in [3]; > 100 µM in assay [11]; > 100 µM in [4]. Besides, the TGI in assay [5], in [6], in assay [7], in assay [8] and in assay [9] was > 100 µM in each case.
Turning to `C/C(=C\CNc1ncnc2nc(Cl)[nH]c12)CO`, the TGI in [10], in assay [1], in [2], in [3], in [11] and in assay [4] was > 100 µM in each case. In addition, the TGI in assay [5], in assay [6], in assay [7], in assay [8] and in [9] was > 100 µM throughout.
`CN(C)C/C=C(/c1ccc(Br)cc1)c1cccnc1`: the TGI is > 100 µM in [10]; 32.4 µM in assay [2]; 0.0516 µM in assay [3]; > 100 µM in [11]; > 100 µM in assay [5]; > 100 µM in assay [6]. Further, the values for the TGI in assay [7], in assay [8] and in assay [9] were > 100 µM, 35.3 µM and > 100 µM, respectively.
For the compound `O=c1oc2c(ccc3occc32)c(N2CCCCC2)c1-c1ccccc1`, the TGI in assay [1] is > 59.5 µM; in [2] it was > 100 µM; in assay [3], 80.1 µM; in assay [11] it was > 100 µM; in assay [4], > 100 µM; in assay [5], > 100 µM. Moreover, the TGI in assay [6] is > 100 µM; in [9], > 30.3 µM.
As for `CCN(CC)/[N+]([O-])=N/OC`, the TGI in assay [10], in assay [1], in [3], in assay [11], in assay [4] and in [5] was > 100 µM throughout. The TGI in assay [6], in assay [7], in assay [8] and in [9] was > 100 µM throughout.
Consider `CCOC(=O)C(=CNC(Cc1c[nH]c2ccccc12)C(=O)OC)C(=O)OCC` (stereo not given), for which the TGI in assay [10], in assay [1], in assay [2], in assay [3], in [11] and in assay [4] was > 100 µM in each case. Moreover, the TGI in assay [5], in assay [6] and in [9] was > 100 µM in each case.
`CC(C)(C)OC(=O)N1C(C2=COc3ccccc3O2)=COc2cccnc21`: the TGI in [10] is 3.19 µM; in assay [2] it was 3.64 µM; in assay [11] it was 3.9 µM; in [4], 3.36 µM; in [5] it was 3.67 µM; in assay [6], 3.31 µM. For the same compound, the TGI amounted to 5.9 µM in assay [7], 3.92 µM in [8] and 3.1 µM in [9].
Regarding `NCCCCN`, the TGI in assay [10], in assay [1], in assay [2], in assay [3], in assay [11] and in [4] was > 100 µM in each case. For the same compound, the TGI in assay [5], in [6], in [7], in [8] and in [9] was > 100 µM throughout.
For `NC(N)=NS(=O)(=O)c1ccc(Nc2c3ccccc3nc3c(C(=O)N4CCN(CCO)CC4)ccc(Cl)c23)cc1`, the TGI in assay [10], in assay [1], in [2], in assay [3], in assay [11] and in [5] was > 100 µM throughout. The TGI in assay [6], in assay [8] and in assay [9] was > 100 µM each time.
Regarding `C=C1CCCC(C)(C)[C@@H]1CC/C(C)=C/Cn1c2cccc(=O)c-2nc2ccccc21`, the TGI in assay [1] is 13 µM; in [3] it was 0.354 µM; in assay [4], 2.45 µM; in assay [6] it was 18.9 µM and 12.5 µM; in assay [8], 9.02 µM and 4.68 µM. Besides, the GI50 is 23.8 µM in assay [2]; 22.7 µM in assay [11]; 14 µM in assay [5]; 2.83 µM in assay [8]; 3.91 µM in assay [9].
For the compound `O=C(N/N=C\c1ccc([N+](=O)[O-])cc1)Nc1ccccc1`, the TGI in assay [1], in assay [2], in assay [3], in assay [11], in assay [5] and in [6] was > 100 µM each time. For the same compound, the TGI in assay [7], in assay [8] and in assay [9] was > 100 µM throughout.
As to `CCOc1cc(NC(C)=O)ccc1C(=O)N/N=C/c1ccco1`, the TGI in assay [10], in assay [1], in assay [2], in assay [3], in assay [11] and in assay [4] was > 100 µM in each case. For the same compound, the TGI in [5] was > 100 µM; in assay [6], > 100 µM; in assay [7] it was 31.3 µM; in assay [8], > 100 µM.
